Patent US20210100869A1, “COMPOSITIONS AND METHODS OF USING SAME FOR TREATING AMYOTROPHIC LATERAL SCLEROSIS (ALS)” (Immunity Pharma Ltd., priority 2018, published 2021)
Residues, ends and D or L forms follow the SMILES beside them.

What was measured:
[1] = test system: ALS patients; conditions: estimated moderate effect; cited from earlier work
[2] = test system: ALS patients; test: Open-label Phase 1/2a clinical trial, safety and tolerability (adverse events); assay type: in vivo, human; conditions: eight patients, IV daily, 1.7 mg/kg escalated to 3.2 mg/kg
Procedure: Dose-limiting Toxicity (DLT): DLT is defined as a ≥Grade 3 per subject which is IPL344 drug-related adverse event (using CTCAE Version v.4.03) occurring at any dosing, excluding: • Grade 3 adverse event of hypersensitivity (defined as sinus tachycardia, heavy breathing or rash along the veins or elsewhere) • A transient (resolving within 6 hours of onset) Grade 3 study drug-related adverse event.
Adverse events (AE)—The FDA defines an AE as “any untoward medical occurrence associated with the use of a drug in humans, whether or not considered drug related” (US Department of Health and Human Services, December 2012). Medical conditions present before first administration of IPL344 are considered pre-existing conditions and are documented as medical history. A new condition, event or the worsening of a pre-existing condition is considered an AE from the first dose of administration.
AEs are coded by CTCAE Version v4.03.
Safety Analysis: The Safety population is based on participants having received at least one dose of IPL-344 (exposed population), including participants prematurely withdrawn. AEs are classified by system-organ class and preferred term and then summarized by number and percentage of participants experiencing AEs. […] The IPL344 DLT and maximal tolerated dose (MTD) are assessed and presented. […]

CC1=NN(c2ccccc2)C(=O)C1 [edaravone]
Extension in patient survival [1]: three months extension in patient survival

CC(C)C[C@H](NC(=O)[C@@H]1CCCN1C(=O)[C@@H]1CCCN1C(=O)[C@@H](N)CC(C)C)C(=O)N1CCC[C@H]1C(=O)N[C@@H](Cc1ccc(O)cc1)C(=O)N1CCC[C@H]1C(=O)O [IPL344, LPPLPYP] (H-LPPLPYP-OH)
Safety and tolerability profile ([2]; 28 days safety study): favorable safety and tolerability profile | Drug-related adverse events [2]: No drug-related adverse events
